Reference: publication PMC8901748, “A novel prostaglandin E receptor 4 (EP4) small molecule antagonist induces articular cartilage regeneration” (Cell Discovery, 2022)
pIC50: −log10 of the molar value. Read-outs that look alike come from different tables or passages of the source.

Columns and labels:
[1] = tested on: primary articular chondrocytes; test: Cell viability by CCK-8 assay; type: cell-based, mouse; settings: 72 h, read-out: IC50 (cell viability, toxicity in chondrocytes)
Experimental: The cell viability was evaluated by CCK-8 assay (Dojindo Molecular Technologies). Primary chondrocytes were plated in the 96-well plates and treated with the EP4 antagonists or DMSO for 72 h. A total of 10 μl CCK-8 was added to each well, the cells were incubated in the presence of CCK-8 for 2–3 h. The optical density (OD) of each well at 450 nm was recorded on a Microplate Reader (SPECTRA MAX190). The absorbance values were normalized by subtracting blank values of […]. The cell viability (% of control) is calculated as the percentage of (ODtest − ODblank)/(ODcontrol − ODblank). The 50% inhibitory concentration (IC50) was calculated with GraphPad Prism software using the sigmoidal dose-response function.
(§1) ATDC5 cell line was purchased from Riken BioResource Center (Tsukuba, Japan) and grown in a 1:1 mixture of DMEM/F12 medium (Corning, 10-092-CVR) supplemented with 5% fetal bovine serum (Gibco, 10099, USA) and 1% penicillin-streptomycin solution (Life Technologies). Cells were maintained at 37 °C under 5% CO2. Primary chondrocytes were obtained from knee joint cartilage of newborn mice. Knee joints were dissected from the tibia plateau and femoral condyle articular cartilage of mouse pups and digested in 0.1% collagenase type II (Sigma) overnight at 37 °C and chondrocytes were harvested by centrifugation. Primary chondrocytes were cultured at a density of 5 × 10^3 cells per ml at 37 °C with 5% CO2. DMEM/F12 medium with 10% fetal bovine serum (FBS) and 1% penicillin–streptomycin was used to culture the primary chondrocytes. Chondrogenic differentiation were induced with chondrogenic medium, which contains insulin-transferrin-selenium (ITS) (Sigma, I3146), 10 ng/ml TGF-β3 (PEPROTECH, 100-36E, USA), 100 nM Dexamethasone (Sigma, D4902), 50 μg/ml VC (Sigma), 1 mM sodium pyruvate (Sigma) and 40 μg/ml proline (Sigma), and/or treatment with rmIL-1β (R&D, 401-ML/CF), TNFα (PEPROTECH, 300-01A-50) in DMEM/F12 for indicated days. Western blotting was performed according to standard protocols. Antibodies used were: rabbit anti-Mmp3 (1:1000, HuaBio), rabbit anti-Mmp13 (1:500, abcam, ab39012), rabbit anti-p-CREB (1:2000, Cell Signaling Technology, 87G3), rabbit anti-CREB (1:2000, Cell Signaling Technology, 48H2), mouse anti-GAPDH (1:5000; Sigma-Aldrich, G8795), rabbit anti-Col2 (Abcam, Ab34712), rabbit anti-STAT3 (1:2000; Abcam, ab68153), rabbit anti-p-STAT3 (Y705) (1:2000; Abcam, ab76315), rabbit anti -p65 (1:1000; CST, 3034), rabbit anti-p-p65 (1:1000; CST, 3033), and rabbit anti-IκBα (1:1000; Abways, CY5026).

CRE-Luc in ATDC5 cells = test: CRE-Luc luciferase reporter assay; type: cell-based, mouse; settings: for CRE-Luc activity: 12 hr
Experimental: Six firefly luciferase reporters were used in the Luciferase assay, including CRE-Luc (PathDetect CRE cis-Reporting System; Stratagene, La Jolla CA) driven by a basic promoter (TATA box) plus four repeats of CRE; Sox9 promoter-Luc contains human SOX9 proximal promoter region (−1034 bp to +67 bp)[45]; 4 × 48-p89-Luc, mouse Col2a1 minimal promoter. AP-1-Luc, Nf-κb-Luc, STAT-Luc were obtained from Stratagene. Chondrocytes were cultured in 24-well plates and 300 ng firefly luciferase reporter constructs were transiently transfected using transfection reagent TransExellent-DNA (Cenji Biotech Inc, China) following manufacturer’s instruction, and 15 ng of the Copia-Renilla luciferase reporter was co-transfected as a normalization control. […] The Dual-Luciferase measurements were performed in triplicate using the Luciferase assay kit (Promega) and a LUMIstar Omega luminometer (BMG Labtech, Mornington, Australia).

[2] = tested on: Col2a1, Acan, Mmp3, Mmp9, Mmp13 expression in primary mouse chondrocytes; test: qRT-PCR of anabolic and catabolic factors in primary chondrocytes; type: cell-based
Experimental: as §1
(§2) Quantitative RT-PCR was performed to measure the relative mRNA levels. RNA samples were prepared from the chondrocytes using Trizol (Takara). cDNA was generated using the Prime Script RT reverse transcriptase kit (Yeasen, Drr036a). Primers used for amplification were shown in Supplementary Table S1, GAPDH was used as the house keeping gene.

primary chondrocytes = test: Chondrocyte micromass differentiation, Alcian blue staining; type: cell-based, mouse; settings: chondrogenic media, 7 days
Experimental: ATDC5 cell line was purchased from Riken BioResource Center (Tsukuba, Japan) and grown in a 1:1 mixture of DMEM/F12 medium (Corning, 10-092-CVR) supplemented with 5% fetal bovine serum (Gibco, 10099, USA) and 1% penicillin-streptomycin solution (Life Technologies). Cells were maintained at 37 °C under 5% CO2. Primary chondrocytes were obtained from knee joint cartilage of newborn mice. Knee joints were dissected from the tibia plateau and femoral condyle articular cartilage of mouse pups and digested in 0.1% collagenase type II (Sigma) overnight at 37 °C and chondrocytes were harvested by centrifugation. Primary chondrocytes were cultured at a density of 5 × 10^3 cells per ml at 37 °C with 5% CO2. DMEM/F12 medium with 10% fetal bovine serum (FBS) and 1% penicillin–streptomycin was used to culture the primary chondrocytes. […]
Micromass cultures were rinsed with PBS, fixed in PFA for 10 min, and then incubated with Alcian blue staining solution (1.0% Alcian blue in 0.1 N HCl) overnight at 4 °C. […] Alcian blue-stained cultures were extracted using 6 M guanidine hydrochloride and absorbance was measured at 620 nm.

[3] = tested on: Sox9 promoter-Luc in ATDC5 cells; test: Sox9 promoter-Luc luciferase reporter assay; type: cell-based, mouse; settings: 6 h
Experimental: (§3) Six firefly luciferase reporters were used in the Luciferase assay, including CRE-Luc (PathDetect CRE cis-Reporting System; Stratagene, La Jolla CA) driven by a basic promoter (TATA box) plus four repeats of CRE; Sox9 promoter-Luc contains human SOX9 proximal promoter region (−1034 bp to +67 bp)[45]; 4 × 48-p89-Luc, mouse Col2a1 minimal promoter. AP-1-Luc, Nf-κb-Luc, STAT-Luc were obtained from Stratagene. Chondrocytes were cultured in 24-well plates and 300 ng firefly luciferase reporter constructs were transiently transfected using transfection reagent TransExellent-DNA (Cenji Biotech Inc, China) following manufacturer’s instruction, and 15 ng of the Copia-Renilla luciferase reporter was co-transfected as a normalization control. Cells were treated with the indicated reagents for 48 h after transfection. The Dual-Luciferase measurements were performed in triplicate using the Luciferase assay kit (Promega) and a LUMIstar Omega luminometer (BMG Labtech, Mornington, Australia).

AP-1-Luc in ATDC5 cells = test: AP-1-Luc luciferase reporter assay; type: cell-based, mouse; settings: 2 ng/ml IL-1β, 30 μM HL-43, 6 h
Experimental: as §3

[4] = tested on: Sox9 target genes in ATDC5 cells; test: qRT-PCR of Sox9 target genes in ATDC5 cells; type: cell-based, mouse; settings: 30 μM HL-43, 24 hr
Experimental: as §2

[5] = tested on: STAT3 nuclear translocation in ATDC5 cells; test: Immunofluorescence of STAT3 and p-STAT3 subcellular localization; type: cell-based, mouse; settings: HL-43 (30 μM), 5 ng/ml IL-1β, 24 h
gastrointestinal tract = test: Gastrointestinal tract toxicity (data not shown); type: in vivo; settings: compared to Celecoxib

| SMILES | pIC50 ([1]; Mus musculus, Chondrocyte) | CRE-Luc activity (CRE-Luc in ATDC5 cells) | pIC50 [1] | EP4 and STAT3 dependent increase in MMP3/13 expression ([2]; 2 ng/ml IL-1β, 24 h) | Expression of catabolic factors (Mmp3, Mmp9, and Mmp13) ([2]; primary mouse chondrocytes, 1 ng/ml IL-1β, 24 h) | Expression of anabolic factors (Col2a1 and Acan) ([2]; primary mouse chondrocytes, 24 h) | Col2a1 expression (screen of EP4 antagonists) ([2]; primary murine chondrocytes, 1 ng/ml IL-1β, 24 hr, EP4 antagonists (2 nM)) | Mmp3 expression (screen of EP4 antagonists) ([2]; primary murine chondrocytes, 1 ng/ml IL-1β, 24 hr, EP4 antagonists (30 μM)) | Chondrogenesis of primary chondrocytes (Alcian blue) (primary chondrocytes) | Sox9 promoter-Luc activity after IL-1β ([3]; 2 ng/ml IL-1β) | Sox9 promoter-Luc activity ([3]; without IL-1β) | CRE-Luc reporter activity under pro-inflammatory conditions (CRE-Luc in ATDC5 cells; 2 ng/ml IL-1β or 100 nM PGE2, 6 h) | AP-1 luciferase reporter activity (AP-1-Luc in ATDC5 cells) | Sox9 target genes (Col2a1, Acan, Sox5, Col9a1, Col11a1, Col27a1, Dcn, Prg4), qRT-PCR [4] | IL-1β-induced nuclear translocation of STAT3 and p-STAT3 [5] | Toxicity in gastrointestinal tract (gastrointestinal tract) |
| --- | --- | --- | --- | --- | --- | --- | --- | --- | --- | --- | --- | --- | --- | --- | --- | --- |
| CCc1nc2c(C)nc(C)cc2n1-c1ccc(CCNC(=O)NS(=O)(=O)c2ccc(C)cc2)cc1 [Grapiprant] | 3.95 | increase CRE-Luc activity in a dose dependent manner | – | – | – | – | – | – | – | – | – | – | – | – | – | – |
| C[C@H](NC(=O)c1c(-c2ccccc2)nnn1CCOc1ccc(F)cc1)c1ccc(C(=O)O)cc1 [HL-43] | – | increase CRE-Luc activity in a dose dependent manner | < 3.00 | dose-dependently inhibited | attenuated the expression of catabolic factors (Mmp3, Mmp9, and Mmp13) in a dose-dependent manner | promoted the expression of anabolic factors | highest potency in inducing Col2a1 expression | reducing Mmp3 expression | promoted the chondrogenesis of the primary chondrocytes in a dose-dependent manner | partially rescued the Sox9 transcriptional expression in a dose-dependent manner | increased by HL-43 stimulation in a dose-dependent manner | dose-dependently activated | not AP-1 or NF-κB | upregulated | suppressed | lower toxicity |
